How the values were obtained:
[1] = system: NFκB transactivation; assay: κB-luciferase reporter assay of TNF-α induced NFκB transactivation in HeLa cells; format: cell-based
Experimental: Having established that triptolide induced cell death is dependent upon free calcium concentration, Applicant next determined whether this was also a requirement for the inhibition of NFκB transcription. HeLa cells were transiently transfected with the κB-luciferase reporter construct for 8 hours before being washed and then cultured in the presence or absence of calcium containing medium for 16 hours. Triptolide (100 nM) was pre-incubated with cells for 1 hour before addition of 15 ng/ml of TNF-α for 4 hours.
As an additional experiment, transcriptional activity was also assessed by site-directed calcium buffering. HeLa cells were co-transfected with the κB-luciferase plasmid as well as one of the following constructs: GFP empty vector, NES-PV-GFP, or NLS-PV-GFP and proper GFP localization was confirmed. […]
NFκB transactivation was examined using the κB-luciferase reporter construct. […] Cells were assessed for NFκB driven luciferase expression after an additional five hours of incubation, at which time TNF-α had induced transcriptional activity by approximately 15-fold in control cells. […] The results thus far support a divergence of triptolide-mediated functions: the pathway regulating growth arrest/death is more sensitive to triptolide and calcium than the mechanism leading to transcriptional repression of NFκB.
A triple κB promoter-Luciferase reporter construct was a gift of Sankar Ghosh (Yale University). […] The transfection efficiency of HeLa was determined to be 80-90%, and all samples were normalized to protein concentration. Luciferase assays were performed using the Firefly luciferase kit as per manufacturer's protocol (Promega) and results obtained on the Wallac Victor2 1420 Multilabel Counter (Perkin Elmer).

[2] = system: HeLa cells; assay: [3H]-triptolide competition binding in intact HeLa cells; conditions: for displacement of / competition for [3H]-triptolide binding: 1 or 10 μM unlabeled competitor for 1 h before approx. 30 nM [3H]-triptolide for 1 h
Experimental: To gain insight into triptolide's mechanism of action Applicant sought to determine its specific binding activity utilizing a system employing [^3H]-triptolide. In addition to competition with 1 μM or 10 μM unlabeled triptolide, Applicant also measured the binding affinities of triptolide analogs (FIG. 3A). These analogs have been previously described and differ structurally from triptolide in the hydrolysis of the 12,13 epoxide (2), and formation of the ketone at the C-14 hydroxyl (3) (FIG. 3A). […] The effective interaction of these analogs with a presumed triptolide binding entity led us to their use in subsequent experiments addressing the mode of triptolide's biological functions.
Labeling studies were performed by the addition of approximately 30 nM [^3H]-triptolide directly into the culture media for one hour at 37° C. For cold competition studies, 1 μM triptolide was incubated with the cells for one hour before or after the addition of [^3H]-triptolide. Triptolide analog studies followed a similar protocol where concentrations used for competition were either 1 or 10 μM added before [^3H]-triptolide. Medium was removed and cells were washed 3× in cold PBS. Total cell lysates were prepared (150 mM NaCl, 50 mM Tris-HCl pH 7.4, 1 mM EDTA, 1% Triton X-100, and Complete™ protease inhibitors (Roche)) and protein was quantitated before measuring the [^3H]-triptolide binding activity via liquid scintillation.

[3] = system: HeLa cells; assay: HeLa cell viability by trypan blue dye exclusion; format: cell-based
Experimental: Since extracellular calcium concentration can influence triptolide binding Applicant sought to determine if the presence of calcium influences the rate of triptolide-mediated apoptosis. To first establish the growth rate of HeLa in media±calcium, cell counts were performed over a 72 hour time course. Although calcium-free media caused cells to detach more easily, the overall growth rates were similar where cell doubling occurred every 24 hours on average (FIG. 5B). For triptolide experiments, cells were initially equilibrated in medium±calcium for 16 hours before the addition of 100 nM triptolide. Cell death was assessed by trypan blue dye exclusion at 24, 48, and 72 hours post drug treatment. In the presence of calcium-containing medium, triptolide induced at least 50% cell death by 24 hours with this trend continuing through later time points (FIG. 5C).
Applicant's results have implicated reversible binding of triptolide to a potential binding protein or complex that can be regulated by calcium. To understand if triptolide function is further separable between cell death and NFκB inhibition, Applicant examined the effect of concentration on these two endpoints. HeLa cells were cultured in the presence of 0, 10, 25, 50, or 100 nM of triptolide and separately assessed for cell death or the ability to suppress NFκB transactivation promoted by TNF-α. Following 24-48 hours of culture, viable cells were recovered and counted. Following 24 hours, triptolide concentrations from 25-100 nM caused greater than 50% of the cells to undergo cell death as assessed by detachment, clumping and the failure to exclude trypan blue dye. […] This is consistent with previous studies showing that low doses of triptolide cause cell cycle arrest rather than apoptosis (Kiviharju, et al., 2002, Clin Cancer Res 8, 2666-2674).
Based upon Applicant's studies examining the concentration dependent effect of triptolide on the two measured biological endpoints, cell death and transcriptional repression, Applicant wanted to determine how modulating triptolide's structure may also discriminate between the two pathways. For cell viability assays, HeLa cells were incubated with 0, 0.1, 1, or 10 μM of each analog or triptolide for 24 hours and then counted using trypan blue dye exclusion. […] NFκB transcriptional inhibition was measured using the κB-luciferase assay as previously described following 5 hours of incubation with each analog (0-10 μM) and TNF-α addition.
HeLa cells were incubated in DMEM or SMEM (Gibco) media+10% FBS and maintained at 37° C. in 5% CO2 for all experiments. HeLa cell viability was assessed by trypan blue dye exclusion, as well as by morphological examination (non-viable cells were rounded and detached from culture plate).

SMILES | effect on NFκB transcriptional activity ([1]; 1 μM, 5 hours with TNF-α) | displacement of / competition for [3H]-triptolide binding [2] | cell viability versus untreated control ([3]; 0.1 μM, 24 hours) | effect on continued cell growth ([3]; 0.1 μM, out to 72 hours) | cell death ([3]; 1 μM, 24 hours) | profile of transcriptional repression (NFκB) compared with triptolide ([1]; 0.1-10 μM, 5 hours) | competitive ability for [3H]-triptolide binding compared with triptolide ([2]; 1 μM competitor) | effect on cells at low concentration ([3]; 25 nM) | profile of cell death compared with triptolide ([3]; 0.1-10 μM, 24 hours)
CC(C)C1(O)C(O)C2OC23C2(C)CCC4=C(COC4=O)C2CC2OC23C1O (stereo not shown) [analog (2), Triol-Triptolide] | no effect | efficiently competes | not different from the untreated control | overall growth suppressive effect | greater than 50% | – | – | – | –
CC(C)[C@]12O[C@H]1[C@@H]1O[C@@]13[C@@]1(C)CCC4=C(COC4=O)[C@@H]1C[C@@H]1O[C@@]13C2=O [analog (3), Triptonide] | – | near complete | – | – | – | mimicked triptolide with no significant difference | higher competitive ability than triptolide itself | only a growth suppressive effect | mimicked triptolide with no significant difference

Source: US20080063601A1, “Compositions and methods relating to polycystic kidney disease” (priority 2004, published 2008)
